According to patent US20260070913A1, “7-AMINO-3,4-DIHYDROPYRIMIDOPYRIMIDIN-2-ONE DERIVATIVE HAVING INHIBITORY ACTIVITY FOR PROTEIN KINASES AND THERAPEUTIC PHARMACEUTICAL COMPOSITION COMPRISING SAME” (KOREA INSTITUTE OF SCIENCE AND TECHNOLOGY, priority 2020, published 2026):

Assays:
OCI-AML3 (N-Ras Q61L) = experiment: Proliferation inhibitory activity, OCI-AML3 cell line; assay type: cell-based; conditions: Homo sapiens, OCI-AML-3
Procedure: (§1) The inhibitory activities of the compounds of the present disclosure against the proliferation of the mt-NRAS (G12D) Ba/F3 and OCI-AML3 (mt-NRAS) cell lines were measured, and the […] values thereof were calculated.
Referring to the results in Table 2, it can be seen that the compound of the present disclosure has inhibitory activity against the proliferation of the human acute myeloid leukemia cell line (OCI-AML3) having the NRAS mutant gene, and the effect thereof is remarkable. Therefore, it can be seen that the compound of the present disclosure is particularly effective as a therapeutic agent for acute myeloid leukemia (AML).

ACK1 = ACK1 (Homo sapiens, UniProt Q07912); experiment: Inhibitory activity against ACK1 kinase; assay type: biochemical
Chain of ACK1 (Q07912 whole entry): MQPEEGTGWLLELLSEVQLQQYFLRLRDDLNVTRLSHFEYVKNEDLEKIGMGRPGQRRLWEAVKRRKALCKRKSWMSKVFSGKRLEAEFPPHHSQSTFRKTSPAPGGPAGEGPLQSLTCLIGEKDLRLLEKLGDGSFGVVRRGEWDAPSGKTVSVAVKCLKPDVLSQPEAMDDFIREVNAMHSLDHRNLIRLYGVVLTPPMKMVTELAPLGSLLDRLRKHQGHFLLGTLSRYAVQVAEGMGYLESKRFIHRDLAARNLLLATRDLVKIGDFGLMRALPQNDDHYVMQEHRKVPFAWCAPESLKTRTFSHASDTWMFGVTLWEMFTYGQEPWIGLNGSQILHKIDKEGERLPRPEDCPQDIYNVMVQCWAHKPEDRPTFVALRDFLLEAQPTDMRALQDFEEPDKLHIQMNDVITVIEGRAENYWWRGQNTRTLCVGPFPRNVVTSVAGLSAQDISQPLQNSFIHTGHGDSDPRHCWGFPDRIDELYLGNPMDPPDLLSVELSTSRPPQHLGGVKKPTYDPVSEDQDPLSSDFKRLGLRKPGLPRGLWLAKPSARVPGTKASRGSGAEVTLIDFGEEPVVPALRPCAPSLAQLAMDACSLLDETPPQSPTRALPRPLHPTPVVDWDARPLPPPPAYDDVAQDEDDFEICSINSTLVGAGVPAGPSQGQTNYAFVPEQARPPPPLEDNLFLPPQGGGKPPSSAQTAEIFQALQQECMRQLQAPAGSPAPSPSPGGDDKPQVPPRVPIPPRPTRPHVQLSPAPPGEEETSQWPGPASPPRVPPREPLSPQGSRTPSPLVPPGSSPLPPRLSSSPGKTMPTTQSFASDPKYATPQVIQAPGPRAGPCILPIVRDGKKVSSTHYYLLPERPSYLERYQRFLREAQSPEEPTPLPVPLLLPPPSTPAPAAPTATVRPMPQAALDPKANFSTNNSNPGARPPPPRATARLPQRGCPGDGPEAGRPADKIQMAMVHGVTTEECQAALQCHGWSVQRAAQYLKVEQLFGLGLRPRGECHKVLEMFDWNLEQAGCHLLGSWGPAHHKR
Procedure: (§2) The inhibitory activities of the compounds of the present disclosure against two kinases, GCK and ACK1, were measured, and the IC50 values thereof were calculated.

GCK = biological target: T1, GCK (Homo sapiens, UniProt Q12851); experiment: Inhibitory activity against GCK kinase; assay type: biochemical
T1 sequence (Q12851 1-820): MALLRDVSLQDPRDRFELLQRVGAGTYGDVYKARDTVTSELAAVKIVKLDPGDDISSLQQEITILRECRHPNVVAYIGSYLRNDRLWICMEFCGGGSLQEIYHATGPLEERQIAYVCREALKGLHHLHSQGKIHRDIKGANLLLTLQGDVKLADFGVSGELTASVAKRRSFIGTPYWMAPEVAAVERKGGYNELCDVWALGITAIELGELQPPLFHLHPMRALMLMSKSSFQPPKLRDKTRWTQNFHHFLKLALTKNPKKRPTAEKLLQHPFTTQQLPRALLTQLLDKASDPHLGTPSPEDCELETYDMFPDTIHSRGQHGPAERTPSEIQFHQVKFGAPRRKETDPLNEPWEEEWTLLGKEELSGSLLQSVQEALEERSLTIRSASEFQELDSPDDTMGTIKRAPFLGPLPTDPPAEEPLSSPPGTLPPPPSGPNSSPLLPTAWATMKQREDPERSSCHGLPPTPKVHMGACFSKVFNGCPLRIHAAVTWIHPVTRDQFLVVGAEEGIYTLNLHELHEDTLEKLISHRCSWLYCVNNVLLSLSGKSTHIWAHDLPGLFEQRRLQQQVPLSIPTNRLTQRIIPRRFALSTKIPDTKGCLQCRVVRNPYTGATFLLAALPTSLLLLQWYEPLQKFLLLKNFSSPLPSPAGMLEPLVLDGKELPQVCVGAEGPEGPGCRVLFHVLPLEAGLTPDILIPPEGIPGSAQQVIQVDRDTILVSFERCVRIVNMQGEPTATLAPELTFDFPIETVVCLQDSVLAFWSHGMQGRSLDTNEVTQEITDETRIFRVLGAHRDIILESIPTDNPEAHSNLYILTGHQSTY
Procedure: as §2

Ba/F3 (N-Ras G12D) = experiment: Proliferation inhibitory activity, mt-NRAS (G12D) Ba/F3 cell line; assay type: cell-based; conditions: Mus musculus, BaF3
Procedure: as §1

| GI50 (OCI-AML3 (N-Ras Q61L)) | IC50 (ACK1) | IC50 (GCK) | GI50 (Ba/F3 (N-Ras G12D)) | Structure (SMILES) |
| --- | --- | --- | --- | --- |
| < 0.5 µM | < 100 nM | 100 to 1000 nM | < 0.5 µM | CCN1CCC(n2cc(Nc3ncc4c(n3)N(C)C(=O)N(c3cc(-c5ncc(-c6ccccc6OC(F)(F)F)[nH]5)ccc3C)C4)cn2)CC1 [Compound No. 10, 7-((1-(1-ethylpiperidin-4-yl)-1H-pyrazol-4-yl)amino)-1-methyl-3-(2-methyl-5-(5-(2-(trifluoromethoxy)phenyl)-1H-imidazol-2-yl)phenyl)-3,4-dihydropyrimido[4,5-d]pyrimidin-2(1H)-one] |
| < 0.5 µM | < 100 nM | 100 to 1000 nM | < 0.5 µM | COc1ccccc1-c1cnc(-c2ccc(C)c(N3Cc4cnc(Nc5ccc(C)nc5)nc4N(C)C3=O)c2)[nH]1 [Compound No. 3, 3-(5-(5-(2-methoxyphenyl)-1H-imidazol-2-yl)-2-methylphenyl)-1-methyl-7-((6-methylpyridin-3-yl)amino)-3,4-dihydropyrimido[4,5-d]pyrimidin-2(1H)-one] |
| 0.5 to 3 µM | 1000 to 10000 nM | > 10000 nM | 0.5 to 3 µM | Cc1ccc(-c2ncc(-c3cccc(F)c3F)[nH]2)cc1N1Cc2cnc(NC3CC3)nc2N(C)C1=O [Compound No. 11, 7-(cyclopropylamine)-3-(5-(5-(2,3-difluorophenyl)-1H-imidazol-2-yl)-2-methylphenyl)-1-methyl-3,4-dihydropyrimido[4,5-d]pyrimidin-2(1H)-one] |
